According to patent publication US20090036461A1, “Use of Azabicyclo Hexane Derivatives” (priority 2005, published 2009):
Entries after “also recorded” stand apart in the source; their conditions may differ.

Columns and labels:
D3 = D3 (Homo sapiens, UniProt P35462); assay: functional pKi (fpKi) at D3, comparison of separated enantiomers; assay type: biochemical; conditions: difference in fpKi between the two separated enantiomers of the same example
[1] = system: Female Sprague Dawley rats; assay: stress-induced food intake, animal model for binge eating (diet restriction cycles + foot shock); assay type: in vivo
Excerpt: Dieting is the strongest predictor of overeating in response of stress. In this specific case, binge eating or binge/purge behaviours are recognized as key features of the human diseases (bulimia nervosa or anorexia, respectively). Two critical factors seem to modulate the production of binge eating: a history of food restriction and access of high palatable (HP) food (dense in fat and sugar) and the interaction with environmental stress. Based on these premises, preclinical models can be developed to explore the potential therapeutic effect of test compounds on binge eating. One model which may be used is described by Hagan et al (Hagan, M. M. et al., Physiol and Beh 77 (2002): 45-54).
Slight modifications such as those below may be applied to their model, for example: • Instrument to deliver FS: Passive Avoidance (Gemini Avoidance System, Coubourn Instrument, San Diego) may be used instead of the 4 closed runways with metal bar floors (Coulbourn Instruments Habitest System, Allentown, Pa.). • Refeeding: 4 days instead of 6 days • HP food: Baiocchi® (Barilla) instead of Oreo® biscuits • For the submission of the animals to the pharmacological treatment, see: Placidi et al., Int J Eat Disord 2004 36 (3) 328-41
Based on the model by Hagan et al, and incorporating the above changes, a model for binge eating may be set up as follows. Female Sprague Dawley rats (7 weeks old) can be single housed at 21±1 C and under a 12 h/12 h light/dark cycle (dark phase: 18:00-06:00) for all the period of the experiment. Before beginning, rats can be habituated to these conditions for 7 days. The rats can then be divided into 2 groups (16 animals/group). One group may take food ad lib (non restricted group: NR) for the 24 days of the experiment, while the other (Restricted Group: R) may receive a restricted diet (66% of the quantity food intake that the other control group was eating) during 4 days, and eat ad lib for the following 4 days. This cycle can be repeated 3 times. Following the last day of refeeding, each group can be subdivided in two. Eight animals of group NR and 8 animals of group R can receive a stress stimulus (4 Foot Shocks (FS) of 0.6 mA separated by 15 sec intervals) while the other 2 subgroups can remain in the same cage where FS is delivered for the same period of time, but without receiving the FS (no shocked: NS). The 4 groups are S/NR, NS/NR, S/R and NS/R. Immediately following time in the shock apparatus, rats can be submitted to a pharmacological treatment (administration of the test compound or of the vehicle) and then be returned to the animal colony. A pre-measured amount of pellets or HP food (Baiocchie) can be put in each cage, and food intake measured after 4 h. Food intake can be expressed in kcal.
Rationale—The effects of the title compound, prepared in an analogous way with Example 123, were tested in the animal model discussed above. The aim of the present study was to assess the effect of this compound in animals that received 3 cycles of diet (restricted:R) and stress (shocked) conditions similar to binge eating in humans.
Methods—Female Sprague Dawley rats (7-week old) were single housed at 21±1° C. and under a 12 h/12 h light/dark cycle (dark phase: 18:00-06:00) for all the entire experimental period. Rats received a restricted diet (66% of the food intake vs. control group) during 4 days, and ate ad libitum for the following 4 days. This cycle was repeated 3 times. Additionally, two other groups were eating ad libitum (not restricted: NR) and received the shock (NR/S). Following the last day of refeeding, the animals received a stress stimulus (4 Foot Shocks (FS) of 0.6 mA separated by 15 sec intervals) and received vehicle or the title compound (0.03, 0.3 or 3 mg/kg i.p.) immediately after the shock. These were the S/R (shocked/Restricted) rats. The S/NR rats received the shock and vehicle or the title compound (prepared in an analogous way with Example 123; 3 mg/kg i.p.) in the same way as the S/R groups. […]

[2] = S/NR (shocked/not restricted) rats, 3 mg/kg i.p. after foot shock
[3] = S/R (shocked/restricted) rats, 0.03 mg/kg i.p. after foot shock
[4] = S/R (shocked/restricted) rats, 0.3 mg/kg i.p. after foot shock
[5] = S/R (shocked/restricted) rats, 3 mg/kg i.p. after foot shock

Chain of D3 (P35462 whole entry): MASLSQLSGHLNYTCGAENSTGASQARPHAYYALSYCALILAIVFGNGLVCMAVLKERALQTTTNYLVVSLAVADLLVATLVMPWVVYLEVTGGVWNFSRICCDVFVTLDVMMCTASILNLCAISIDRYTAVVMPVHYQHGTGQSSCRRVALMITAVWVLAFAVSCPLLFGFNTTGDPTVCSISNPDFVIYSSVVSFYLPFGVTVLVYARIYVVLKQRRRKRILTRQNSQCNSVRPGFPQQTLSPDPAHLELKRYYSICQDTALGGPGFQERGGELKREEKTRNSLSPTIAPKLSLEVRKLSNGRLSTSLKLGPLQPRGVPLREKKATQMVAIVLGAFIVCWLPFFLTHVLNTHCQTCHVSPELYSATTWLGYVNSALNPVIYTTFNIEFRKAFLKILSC

SMILES | fpKi (D3) higher than the other enantiomer (D3) [log-unit] | also measured
Cc1ncoc1-c1nnc(SCCCN2C[C@@H]3C[C@]3(c3ccc4c(cnn4C)c3)C2)n1C (single isomer, unassigned) [Example 74 Enantiomer 1] | > 1 | 
COc1ccc([C@]23C[C@H]2CN(CCCSc2nnc(-c4ocnc4C)n2C)C3)cc1C(C)=O (single isomer, unassigned) [Example 19 Enantiomer 1] | > 1 | 
Cc1nc2cc([C@]34C[C@H]3CN(CCCSc3nnc(-c5ocnc5C)n3C)C4)ccc2s1 (single isomer, unassigned) [Example 72 Enantiomer 1] | > 1 | 
Cc1ncoc1-c1nnc(SCCCN2C[C@@H]3C[C@]3(c3ccc(OC(F)(F)F)cc3)C2)n1C (single isomer, unassigned; enantiomer 1) [Example 30 Enantiomer 1] | > 1 | 
COc1ccc([C@]23C[C@H]2CN(CCCSc2nnc(-c4cccc5nc(C)ccc45)n2C)C3)cc1 (single isomer, unassigned) [Example 1 Enantiomer 1] | > 1 | 
Cc1ncoc1-c1nnc(SCCCN2C[C@@H]3C[C@]3(c3ccc(F)cc3)C2)n1C (single isomer, unassigned) [Example 21 Enantiomer 1] | > 1 | 
Cc1ncoc1-c1nnc(SCCCN2C[C@@H]3C[C@]3(c3cccc(C(F)(F)F)c3F)C2)n1C (single isomer, unassigned; enantiomer 2) [Example 111 Enantiomer 2] | > 1 | 
Cn1c(SCCCN2C[C@@H]3C[C@]3(c3ccc(OC(F)(F)F)cc3)C2)nnc1C1CCOCC1 (single isomer, unassigned) [Example 33 Enantiomer 1] | > 1 | 
Cc1ncoc1-c1nnc(SCCCN2C[C@@H]3C[C@]3(c3cc(F)cc(C(F)(F)F)c3)C2)n1C (single isomer, unassigned; enantiomer 1) [Example 110 Enantiomer 1] | > 1 | 
Cc1ncoc1-c1nnc(SCCCN2C[C@@H]3C[C@]3(c3ccc(Cl)cc3)C2)n1C (single isomer, unassigned) [Example 20 Enantiomer 1] | > 1 | 
Cc1ncoc1-c1nnc(SCCCN2C[C@@H]3C[C@]3(c3ccc(C(F)(F)F)cc3F)C2)n1C.O=C(O)[C@H](O)[C@@H](O)C(=O)O [Example 123, (1S,5R)-1-[2-Fluoro-4-(trifluoromethyl)phenyl]-3-(3-{[4-methyl-5-(4-methyl-1,3-oxazol-5-yl)-4H-1,2,4-triazol-3-yl]thio}propyl)-3-azabicyclo[3.1.0]hexane tartrate] |  | inhibitory effect in non-stressed animals, in respect to controls ([1]; 3 mg/kg i.p., result in words, tartrate): did not show any inhibitory effect; also recorded: No significant effects; Chow Intake after 4 h [1, 2]: 1.92 ± 0.66 kcal; HP Intake after 4 h [1, 2]: 8.73 ± 2.75 kcal; Total Food Intake after 4 h [1, 2]: 10.65 ± 2.75 kcal; Chow Intake after 4 h [1, 3]: 1.95 ± 0.58 kcal; HP Intake after 4 h [1, 3]: 17.11 ± 2.49 kcal; Total Food Intake after 4 h [1, 3]: 19.06 ± 2.44 kcal; Chow Intake after 4 h [1, 4]: 2.09 ± 0.74 kcal; HP Intake after 4 h [1, 4]: 14.44 ± 2.15 kcal; Total Food Intake after 4 h [1, 4]: 16.54 ± 1.94 kcal; Chow Intake after 4 h [1, 5]: 2.62 ± 0.79 kcal; HP Intake after 4 h [1, 5]: 8.89 ± 1.90 kcal; Total Food Intake after 4 h [1, 5]: 11.51 ± 1.99 kcal; effect on total Food Intake ([1]; S/R rats, highest dose of 3 mg/kg, 1-way ANOVA, result in words): significantly decreased total food intake; effect on HP intake ([1]; S/R rats, highest dose of 3 mg/kg, Dunnett's p<0.01, result in words): significantly decreased HP intake; effect on Chow intake ([1]; S/R rats, highest dose of 3 mg/kg, Dunnett's p<0.05, result in words): significantly decreased chow Intake; effect on stress-induced overeating ([1]; result in words): significant inhibitory effect on stress-induced overeating
Cc1ncoc1-c1nnc(SCCCN2C[C@]3(C)C[C@@]3(c3cccc(Cl)c3)C2)n1C (single isomer, unassigned) [Example 22 Enantiomer 1] | > 1 | 
Cc1ccc2c(-c3nnc(SCCCN4C[C@@H]5C[C@]5(c5ccccc5)C4)n3C)cccc2n1 (single isomer, unassigned) [Example 3 Enantiomer 2] | > 1 | 
Cc1ncoc1-c1nnc(SCCCN2C[C@@H]3C[C@]3(c3ccc(C(F)(F)F)cn3)C2)n1C (single isomer, unassigned) [Example 96 Enantiomer 2] | > 1 | 
Cc1ccc2c(-c3nnc(SCCCN4C[C@@H]5C[C@]5(c5ccc(Br)cc5)C4)n3C)cccc2n1 (single isomer, unassigned) [Example 2 Enantiomer 2] | > 1 | 
COc1cccc([C@]23C[C@H]2CN(CCCSc2nnc(-c4ocnc4C)n2C)C3)c1 (single isomer, unassigned) [Example 24 Enantiomer 1] | > 1 | 
Cc1ccc2c(-c3nnc(SCCCN4C[C@@H]5C[C@]5(c5ccc(Cl)c(Cl)c5)C4)n3C)cccc2n1 (single isomer, unassigned) [Example 4 Enantiomer 1] | > 0.6 | 
Cc1ncoc1-c1nnc(SCCCN2C[C@@H]3C[C@]3(c3cccc(F)c3)C2)n1C (single isomer, unassigned) [Example 23 Enantiomer 1] | > 1 | 
CCC(=O)c1cc([C@]23C[C@H]2CN(CCCSc2nnc(-c4ocnc4C)n2C)C3)ccc1OC (single isomer, unassigned) [Example 71 Enantiomer 1] | > 1 | 
Cc1ncoc1-c1nnc(SCCCN2C[C@@H]3C[C@]3(c3ccc(Br)cc3)C2)n1C (single isomer, unassigned) [Example 9 Enantiomer 1] | > 1 | 
Cc1ccc2c(-c3nnc(SCCCN4C[C@@H]5C[C@]5(c5ccc(C(C)(C)C)cc5)C4)n3C)cccc2n1 (single isomer, unassigned) [Example 5 Enantiomer 2] | > 0.9 | 
Cc1ncoc1-c1nnc(SCCCN2C[C@]3(C)C[C@@]3(c3ccc(C(F)(F)F)c(F)c3)C2)n1C (single isomer, unassigned) [Example 61 Enantiomer 1] | > 2 | 
Cc1ncoc1-c1nnc(SCCCN2C[C@@H]3C[C@]3(c3cc(C(F)(F)F)ccc3F)C2)n1C (single isomer, unassigned) [Example 36 Enantiomer 2] | > 1 | 
